# Tests used:
# Wnt signaling = test: Wnt co-culture reporter gene assay (TM3 Wnt-Luc cells with L-cell Wnt3A cells); format: cell-based, mouse
# Method: Reporter gene assay: Mouse Leydig cell TM3 cells (obtained from American Type Culture Collection, ATCC, Manassas, Va.) are cultured in 1:1 mixture of Ham's F12 medium and Dulbecco's modified Eagle's medium (Gibco/Invitrogen, Carlsbad, Calif.) supplemented with 2.5% FBS (Gibco/Invitrogen, Carlsbad, Calif.) and 5% horse serum (Gibco/Invitrogen, Carlsbad, Calif.), 50 unit/mL penicillin and 50 μg/mL of streptomycin (Gibco/Invitrogen, Carlsbad, Calif.) at 37° C. with 5% CO2 in air atmosphere. TM3 cells in a 10 cm dish are co-transfected with 8 μg of STF-reporter plasmid containing a luciferase gene driven by Wnt-responsive elements and 2 μg of pcDNA3.1-Neo (Gibco/Invitrogen, Carlsbad, Calif.) with 30 μL of FuGENE6 (Roche Diagnostics, Indianapolis, Ind.) following the manufacturer's protocol. Stable cell lines (TM3 Wnt-Luc) were selected with 400 μg/mL of G418 (Gibco/Invitrogen, Carlsbad, Calif.). […]
# Wnt3A secretion = test: HA-Wnt3A secretion in transfected 293A cells; format: cell-based; settings: 293A cells transfected with HA-Wnt3A, various doses; lysate HA-Wnt3A spared
# Source text: (§1) The secreted Wnts subsequently function on Wnt receiving cells that leads to phosphorylation of the Wnt […] LRP6. […] PORCN was reported to affect pan-Wnt post-translational palmitoylation^17-18.
# LRP6 phosphorylation = test: Wnt dependent phosphorylation of LRP6 in autocrine L-Wnt3A cells; format: cell-based, mouse
# Source text: as §1
# [1] = tested on: Wnt1, 2, 3, 3A, 6, 7A, and 9A; test: Wnt dependent STF reporter assays with a set of canonical Wnts; format: cell-based
# Source text: as §1
# cells = test: Cytotoxicity in cells; format: cell-based; settings: up to 20 μM
# Source text: as §1
# HNSCC cell lines = test: Cancer cell line profiling with AXIN2 mRNA expression as readout (TaqMan); format: cell-based, human
# Method: (§2) To identify human cancer cell lines that respond to porcupine inhibition, we profiled over 300 cell lines using the mRNA expression level of AXIN2 as readout. All cell lines were cultured in a humidified incubator at 37° C. with 5% CO2. HN30 cells (Wayne State University) and UMSCC cells (University of Michigan) are derived from human head neck squamous cell carcinoma (HNSCC) patient tumor samples. Total RNA or DNA was isolated using the Qiagen RNeasy and DNeasy blood and tissue kit, according to the manufacturer's instruction, respectively. Briefly, cells were disrupted by adding Buffer RLT and homogenized using QlAshredder spin columns. After one volume of 70% ethanol was added to the homogenized lysate and thoroughly mixed, the samples were transferred to RNeasy spin column. The flow-through was discarded after centrifuge. […]
# (§3) For this a two-Step TaqMan RT-PCR analysis was performed on a PTC-200 peltier thermal cycler (MJ Research) and an ABI PRISM 7900HT Sequence Detection system (Applied Biosystems). […] The PCR cycle is as following: 95° C. for 10 min and 40 cycles of tandem incubation at 95° C. for 15 sec and 60° C. for 1 min. mRNA expression levels for the target genes were normalized to GAPDH mRNA levels and data were analyzed using SDS 2.0 software (Applied Biosystems) to calculate relative RNA quantities. […]
# HN30 cells [2] = test: Wnt-dependent AXIN2 message production in HN30 (TaqMan); format: cell-based; settings: Homo sapiens; HN30, 48 hours
# Method: as §2, §3
# HN30 cells [3] = test: HN30 colony formation assay; format: cell-based, human; settings: in vitro, crystal violet one week later
# Method: In order to correlate the pathway inhibition with cellular function, the human HNSCC cell line HN30 was used for further in vitro and in vivo characterization. For colony formation assay, 2×10^3 cells per well were plated into 6-well cell culture plates with or without compound treatment. Cells were stained with crystal violet one week later.
# HN30 tumors [4] = test: Mouse subcutaneous xenograft model of HNSCC HN30, anti-tumor activity; format: in vivo
# Method: (§4) Nude mice bearing HN30 tumors were randomized according to tumor volume. […] Body weight was monitored daily and tumor sizes were assessed three times a week once tumors were palpable. Tumor sizes were determined by using caliper measurements. Tumor volumes were calculated with a formula (Length×Width×Height)/2. […] Blood sample (50 μL) was collected by serial retroorbital sampling at 1, 3, 7, 16 and 24 hours post-dose. The blood samples were centrifuged and plasma separated and frozen until analysis by LC/MS/MS.
# Changes in tumor weight for each treated (T) and control (C) groups were measured and used to calculate growth delay as expressed by the T/C ratio. […] A similar result was obtained when dosed twice a day in this model with −44% T/C at a dose of 0.5 mg/kg twice a day.
# HN30 tumors [5] = test: Pharmacodynamic markers in HN30 mouse xenograft tumors; format: in vivo
# Method: AXIN2 mRNA and pLRP6 levels (determined as in Example 3) were utilized as pharmacodynamic markers to link the observed anti-tumor activity in the HN30 mouse xenograft model. […] A time delay was observed between the peak drug concentration (at 1 hour) and the maximum AXIN2 mRNA inhibition (at 10 hours). […] This pharmacokinetic (PK), PD, and efficacy relationship explains that the sustained pathway inhibition is not required for inducing tumor regression in this HN30 xenograft model, which may provide a key differentiation factor between tumors and normal tissues to achieve a therapeutic window.
# For this a two-Step TaqMan RT-PCR analysis was performed on a PTC-200 peltier thermal cycler (MJ Research) and an ABI PRISM 7900HT Sequence Detection system (Applied Biosystems). Firstly, cDNA was synthesized using a High-Capacity cDNA Archive kit (Applied Biosystems) according to the manufacturer's instructions. Briefly, the RT reaction was prepared by mixing non-enzymatic, enzymatic components of the High-Capacity cDNA Archive kit and isolated RNA samples, followed with tandem incubation at 25° C. for 10 min and 37° C. for 120 min using a thermal cycler. Secondly, TaqMan analyses were performed using TaqMan Universal Master mix (Applied Biosystems) and AXIN2 and GAPDH probes (Applied Biosystems) according to the manufacturer's instructions. Briefly, the PCR reaction was prepared by mixing Universal Master mix, TaqMan probes and synthesized cDNA samples. The PCR cycle is as following: 95° C. for 10 min and 40 cycles of tandem incubation at 95° C. for 15 sec and 60° C. for 1 min. mRNA expression levels for the target genes were normalized to GAPDH mRNA levels and data were analyzed using SDS 2.0 software (Applied Biosystems) to calculate relative RNA quantities. Curve fitting was performed using Prism.
# For GeneCard analysis, 96-well TaqMan array gene card was used according to the manufacturer's instruction. The gene card assays were run on ABI 7900HT Real-Time PCR System (Applied Biosystems) and analyzed with the ΔΔCt method.
# [6] = Plasma concentrations in tumor bearing nude mice; format: in vivo, mouse; settings: single dose 3 mg/kg
# Method: as §4
# SNU1076 xenograft = SNU1076 xenograft model in mice; format: in vivo, mouse; settings: 5 mg/kg
# Source text: DTX3L (Deltex 3-like, also called BBAP, B-lymphoma- and BAL-associated protein) heterozygous nonsense mutation was identified in the HNSCC cell line SNU1076. DTX3L is an E3 ubiquitin ligase. Its cellular function in the mammalian Notch pathway is not clear, but its Drosophila homologue Deltex is a positive regulator of Notch signaling in Drosophila. […] Loss of DTX3L may provide an alternative mechanism to inactivate the Notch signaling pathway with subsequent activation of Wnt signaling.
structure (smiles),measurement,setting,value
"Cc1cc(-c2ncc(CC(=O)Nc3ccc(-c4cnccn4)cn3)cc2C)ccn1 [COMPOUND A, 2-[5-methyl-6-(2-methylpyridin-4-yl)pyridin-3-yl]-N-[5-(pyrazin-2-yl)pyridin-2-yl]acetamide]",IC50,"Wnt signaling; Mus musculus, luciferase reporter, 24 hours, read-out: IC50 of Wnt signaling inhibition in Wnt co-culture assay",400 pM
same,inhibitory effect after addition of exogenous Wnt3A conditioned medium,Wnt signaling; Wnt co-culture assay,rescued
same,abundance of HA-Wnt3A in the supernatant,Wnt3A secretion,potently attenuated
same,Wnt dependent phosphorylation of LRP6,LRP6 phosphorylation,strongly blocked
same,inhibitory activities against canonical Wnts in STF reporter assays,[1],comparable inhibitory activities against all tested Wnts
same,cytotoxicity in cells,cells,no major cytotoxicity
same,cell lines harbouring HRAS mutations that responded,HNSCC cell lines; head and neck cancer cell lines,4 of 5
same,HNSCC cell lines showing pathway inhibition,HNSCC cell lines; responsive = greater than 50% AXIN2 mRNA reduction after 10-100 nM for 48 hours,31 out of 96
same,IC50,HN30 cells [2],300 pM
same,HN30 colony formation,HN30 cells [3],strongly attenuated
same,T/C,"HN30 tumors [4]; 0.1 mg/kg once a day, oral gavage, 14 days",69%
same,T/C,"HN30 tumors [4]; 0.3 mg/kg once a day, oral gavage, 14 days",26%
same,T/C,HN30 tumors [4]; 0.5 mg/kg twice a day,−44%
same,T/C,"HN30 tumors [4]; 1.0 mg/kg once a day, oral gavage, 14 days",−31%
same,T/C,"HN30 tumors [4]; 3.0 mg/kg once a day, oral gavage, 14 days",−50%
same,animal body weight loss,"HN30 tumors [4]; 0.1-3.0 mg/kg once a day, 14 days",no significant animal body weight loss
same,time of maximum effect on pLRP6,HN30 tumors [5]; HN30 tumors,7-10 hours post dose
same,downregulation for LEF1,HN30 tumors [5]; HN30 xenograft,84%
same,downregulation for NKD1,HN30 tumors [5]; HN30 xenograft,67%
same,time of maximum AXIN2 mRNA inhibition,HN30 tumors [5]; single dose 3 mg/kg,10 h
same,reduction of AXIN2 mRNA expression in tumors,"HN30 tumors [5]; single dose 3 mg/kg, between 5 and 10 hours post dose",60-95%
same,pLRP6 levels in the HN30 tumors,"HN30 tumors [5]; time dependent, largely back to normal by 24 hours",substantially reduced
same,time of peak drug concentration,[6],1 h
same,T/C,SNU1076 xenograft; 14 days of treatment,25%
same,reduction of AXIN2,SNU1076 xenograft; SNU1076 xenograft,70%
